Data taken from patent US12091423B2, “Substituted 3,4,12,12a-tetrahydro-1H-[1,4]oxazino[3,4-c]pyrido[2,1-f][1,2,4]triazine-6,8-dione, pharmaceutical composition, method for the production and use thereof” (VIRIOM, INC., priority 2019, dated 2024).

Tested on: influenza A/California/2009 (H1N1)
Test: microbe, parasite or virus in culture
Assay type: cell-based
Conditions: H1N1, MDCK

Row | Structure (SMILES) | EC50 [nM]
1 | O=C1c2c(O)c(=O)ccn2N([C@@H]2c3ccc(F)c(F)c3CSc3ccsc32)[C@@H]2COCCN12 [1.3.2, (12aR)-7-hydroxy-12-[(10R)-6,7-difluoro-5,10-dihydrothieno[3,2-c][2]benzothiepin-10-yl]-3,4,12,12a-tetrahydro-1H-[1,4]oxazino[3,4-c]pyrido[2,1-f][1,2,4]triazine-6,8-dione] | < 0.3
2 | O=C1c2c(O)c(=O)ccn2N([C@H](c2ccccc2)c2ccc(F)c(F)c2)[C@@H]2COCCN12 [1.8.2, (12aR)-7-hydroxy-12-[(R)-(3,4-difluorophenyl)(phenyl)methyl]-3,4,12,12a-tetrahydro-1H-[1,4]oxazino[3,4-c]pyrido[2,1-f][1,2,4]triazine-6,8-dione] | 2 to 4
3 | O=C1c2c(O)c(=O)ccn2N([C@@H](c2ccccc2)c2ccc(F)c(F)c2)[C@@H]2COCCN12 [1.9.2, (12aR)-7-hydroxy-12-[(S)-(3,4-difluorophenyl)(phenyl)methyl]-3,4,12,12a-tetrahydro-1H-[1,4]oxazino[3,4-c]pyrido[2,1-f][1,2,4]triazine-6,8-dione] | 2 to 4
4 | O=C1c2c(O)c(=O)ccn2N(C(c2ccccc2)c2ccccc2)[C@@H]2COCCN12 [1.13.2, (12aR)-7-hydroxy-12-diphenylmethyl-3,4,12,12a-tetrahydro-1H-[1,4]oxazino[3,4-c]pyrido[2,1-f][1,2,4]triazine-6,8-dione] | 2 to 4
5 | O=C1c2c(O)c(=O)ccn2N(C(c2ccc(F)cc2)c2ccc(F)cc2)[C@@H]2COCCN12 [1.14.2, (12aR)-7-hydroxy-12-[bis(4-fluorophenyl)methyl]-3,4,12,12a-tetrahydro-1H-[1,4]oxazino[3,4-c]pyrido[2,1-f][1,2,4]triazine-6,8-dione] | 2 to 4
